Results as given in patent publication US10383859B2, “Benzo[d]thiazole derivative or salt thereof, and pharmaceutical composition including same” (Yuhan Corporation, priority 2016, dated 2019).
Read-outs that look alike come from different tables or passages of the source.

System: A549 cells
Test: Cell migration assay (24-well transwell, laminin)
Format: cell-based, human
Settings: laminin 10 μg/mL in lower well, test compounds 0.39˜100 μM, migrated cells counted, read-out: Inhibitory activity against cell migration
Protocol: Cell migration was measured with a 24-well transwell having a polycarbonate membrane (8.0 μm pore size, Costar) at the bottom of the upper chamber. Each lower well was treated with laminin (10 μg/mL) and test compounds in predetermined concentrations (0.39˜100 μM) along with a serum-free RPMI1640 medium. A549 cells (Korean Cell Line Bank) were suspended in a serum-free RPMI1640 medium at a concentration of 1×10^6 cells/mL and then the test compounds were added thereto at the indicated concentrations. Each resulting solution (100 μL) was added to the upper chamber. The cells were cultured at 37° C. for 6 hours in a CO2 incubator. The upper chamber was taken out and then the cells were fixed with PBS containing 70% methyl alcohol for 10 minutes, followed by washing with PBS twice. The cells were stained with hematoxylin (Sigma) for 10 minutes and then washed with distilled water. The non-migrated cells were removed from the upper portion of the polycarbonate membrane with a cotton swab. The membranes were excised and separated from the chamber, and then mounted to a slide using a gel mount reagent (Biomeda, USA). The migrated cells (attached to the lower face of the membrane) were counted at three randomly selected sites under a microscope (×20). The cell counting was performed with the Image J program. From the counted cell numbers, each IC50 value was calculated by non-linear regression curve fit using the “GraphPad Prism” program.
The cells are pulled by laminin residing in the lower chamber and then passed through the polycarbonate membrane, so as to attach to the lower face of the membrane.

SMILES | IC50 (Homo sapiens, A549, 6 h) | IC50 (6 hours)
COc1ccc(CCN(c2nc3ccc(C)c(F)c3s2)C(C)c2ccc(C(=O)O)cc2)cc1 (stereo not shown) [Example 105, 4-(1-{(7-fluoro-6-methyl-benzo[d]thiazol-2-yl)[2-(4-methoxyphenyl)ethyl]amino}ethyl)benzoic acid] | > 10 µM | –
COc1ccc(CCN(c2nc3ccc(F)c(F)c3s2)C(C)c2ccc(C(=O)O)cc2)cc1 (stereo not shown) [Example 104, 4-(1-{(6,7-difluorobenzo[d]thiazol-2-yl)[2-(4-methoxyphenyl)ethyl]amino}ethyl)benzoic acid] | > 10 µM | –
O=C(O)c1ccc(CN(CCc2cccc(F)c2F)c2nc3cccc(F)c3s2)cc1 [Example 34, 4-({[2-(2,3-difluorophenyl)ethyl](7-fluorobenzo[d]thiazol-2-yl)amino}methyl)benzoic acid] | > 10 µM | –
COc1ccc(CCN(c2nc3cccc(F)c3s2)C(C)c2ccc(C(=O)O)cc2)cc1 (stereo not shown) [Example 52, 4-(1-{(7-fluorobenzo[d]thiazol-2-yl)[2-(4-methoxyphenyl)ethyl]amino}ethyl)benzoic acid] | < 1 µM | –
COc1ccc(CCN(Cc2ccc(C(=O)O)cc2)c2nc3c(F)cc(F)cc3s2)cc1 [Example 95, 4-({(4,6-difluorobenzo[d]thiazol-2-yl)[2-(4-methoxyphenyl)ethyl]amino}methyl)benzoic acid] | < 1 µM | –
CCC(c1ccc(C(=O)O)cc1)N(CCc1cc(F)c(OC)cc1F)c1nc2cccc(F)c2s1 (stereo not shown) [Example 69, 4-(1-{[2-(2,5-difluoro-4-methoxyphenyl)ethyl](7-fluorobenzo[d]thiazol-2-yl)amino}propyl)benzoic acid] | > 10 µM | –
COc1cccc(CCN(Cc2ccc(C(=O)O)cc2)c2nc3cccc(F)c3s2)c1 [Example 7, 4-({(7-fluorobenzo[d]thiazol-2-yl)[2-(3-methoxyphenyl)ethyl]amino}methyl)benzoic acid] | – | 1 to 10 µM
COc1ccc(CCN(Cc2ccc(C(=O)O)cc2)c2nc3cccc(F)c3s2)c(OC)c1 [Example 27, 4-({[2-(2,4-dimethoxyphenyl)ethyl](7-fluorobenzo[d]thiazol-2-yl)amino}methyl)benzoic acid] | 1 to 10 µM | –
COc1ccc(CCN(Cc2ccc(C(=O)O)cc2)c2nc3cccc(F)c3s2)cc1OC [Example 15, 4-({[2-(3,4-dimethoxyphenyl)ethyl](7-fluorobenzo[d]thiazol-2-yl)amino}methyl)benzoic acid] | < 1 µM | –
O=C(O)c1ccc(CN(CCc2ccccc2F)c2nc3cccc(F)c3s2)cc1 [Example 41, 4-({(7-fluorobenzo[d]thiazol-2-yl)[2-(2-fluorophenyl)ethyl]amino}methyl)benzoic acid] | > 10 µM | –
CC(c1ccc(C(=O)O)cc1)N(CCc1ccc(F)cc1F)c1nc2cccc(F)c2s1 (stereo not shown) [Example 56, 4-(1-{[2-(2,4-difluorophenyl)ethyl](7-fluorobenzo[d]thiazol-2-yl)amino}ethyl)benzoic acid] | > 10 µM | –
O=C(O)c1ccc(CN(CCc2ccc(F)cc2)c2nc3cccc(F)c3s2)cc1 [Example 8, 4-({(7-fluorobenzo[d]thiazol-2-yl)[2-(4-fluorophenyl)ethyl]amino}methyl)benzoic acid] | > 10 µM | –
CC(C)COc1ccc(CCN(Cc2ccc(C(=O)O)cc2)c2nc3cccc(F)c3s2)cc1 [Example 18, 4-({(7-fluorobenzo[d]thiazol-2-yl)[2-(4-isobutoxyphenyl)ethyl]amino}methyl)benzoic acid] | 1 to 10 µM | –
COc1ccc(CCN(Cc2ccc(C(=O)O)cc2)c2nc3cccc(F)c3s2)c(F)c1F [Example 43, 4-({[2-(2,3-difluoro-4-methoxyphenyl)ethyl](7-fluorobenzo[d]thiazol-2-yl)amino}methyl)benzoic acid] | < 1 µM | –
COc1ccc(CCN(Cc2ccc(C(=O)O)cc2)c2nc3cccc(F)c3s2)c(Cl)c1 [Example 46, 4-({[2-(2-chloro-4-methoxyphenyl)ethyl](7-fluorobenzo[d]thiazol-2-yl)amino}methyl)benzoic acid] | > 10 µM | –
COc1ccc(CCN(Cc2ccc(C(=O)O)cc2)c2nc3cccc(N)c3s2)cc1 [Example 82, 4-({(7-amino-benzo[d]thiazol-2-yl)[2-(4-methoxyphenyl)ethyl]amino}methyl)benzoic acid] | < 1 µM | –
COc1ccc(CCN(Cc2ccc(C(=O)O)cc2)c2nc3cccc(F)c3s2)cc1 [Example 1, 4-({(7-fluorobenzo[d]thiazol-2-yl)[2-(4-methoxyphenyl)ethyl]amino}methyl)benzoic acid] | < 1 µM | –
O=C(O)c1ccc(CN(CCc2ccc(Cl)cc2Cl)c2nc3cccc(F)c3s2)cc1 [Example 38, 4-({[2-(2,4-dichlorophenyl)ethyl](7-fluorobenzo[d]thiazol-2-yl)amino}methyl)benzoic acid] | > 10 µM | –
CSc1cccc(CCN(Cc2ccc(C(=O)O)cc2)c2nc3cccc(F)c3s2)c1 [Example 13, 4-{[(7-fluorobenzo[d]thiazol-2-yl){2-[3-(methylsulfanyl)phenyl]ethyl}amino]methyl}benzoic acid] | < 1 µM | –
O=C(O)c1ccc(CN(CCc2cc(F)c(F)c(F)c2)c2nc3cccc(F)c3s2)cc1 [Example 36, 4-({(7-fluorobenzo[d]thiazol-2-yl)[2-(3,4,5-trifluorophenyl)ethyl]amino}methyl)benzoic acid] | > 10 µM | –
CNc1ccc(CCN(Cc2ccc(C(=O)O)cc2)c2nc3cccc(F)c3s2)cc1 [Example 20, 4-{[(7-fluorobenzo[d]thiazol-2-yl){2-[4-(methylamino)phenyl]ethyl}amino]methyl}benzoic acid] | < 1 µM | –
COc1ccc(CCN(Cc2ccc(C(=O)O)cc2)c2nc3ccc([N+](=O)[O-])cc3s2)cc1 [Example 79, 4-({[2-(4-methoxyphenyl)ethyl](6-nitro-benzo[d]thiazol-2-yl)amino}methyl)benzoic acid] | < 1 µM | –
COc1ccccc1CCN(Cc1ccc(C(=O)O)cc1)c1nc2cccc(F)c2s1 [Example 16, 4-({(7-fluorobenzo[d]thiazol-2-yl)[2-(2-methoxyphenyl)ethyl]amino}methyl)benzoic acid] | > 10 µM | –
COc1cccc(CCN(Cc2ccc(C(=O)O)cc2)c2nc3cccc(F)c3s2)c1 [Example 42, 4-({(7-fluorobenzo[d]thiazol-2-yl)[2-(3-methoxyphenyl)ethyl]amino}methyl)benzoic acid] | – | > 10 µM
COc1cc(C)c(CCN(Cc2ccc(C(=O)O)cc2)c2nc3cccc(F)c3s2)cc1C(C)C [Example 44, 4-{[(7-fluorobenzo[d]thiazol-2-yl){2-[4-methoxy-2-methyl-5-(propan-2-yl)phenyl]ethyl}amino]methyl}benzoic acid] | > 10 µM | –
COc1cc(C)c(CCN(Cc2ccc(C(=O)O)cc2)c2nc3cccc(F)c3s2)cc1C [Example 48, 4-({(7-fluorobenzo[d]thiazol-2-yl)[2-(4-methoxy-2,5-dimethylphenyl)ethyl]amino}methyl)benzoic acid] | < 1 µM | –
CCC(c1ccc(C(=O)O)cc1)N(CCc1ccc(OC)cc1)c1nc2cccc(F)c2s1 (stereo not shown) [Example 53, 4-(1-{(7-fluorobenzo[d]thiazol-2-yl)[2-(4-methoxyphenyl)ethyl]amino}propyl)benzoic acid] | < 1 µM | –
COc1ccc(CCN(Cc2ccc(C(=O)O)cc2)c2nc3ccc(Cl)c(F)c3s2)cc1 [Example 88, 4-({(6-chloro-7-fluorobenzo[d]thiazol-2-yl)[2-(4-methoxyphenyl)ethyl]amino}methyl)benzoic acid] | < 1 µM | –
